Legend:
Format in all cases: in vivo
Plasmodiophora brassicae [1] = test: Cabbage clubroot control test, pot test (Example 1 / Comparative Example 1); parameters: key to Disease control value: {1−(treatment severity/control severity)}×100; key to Disease severity: Σ(plants×index 0-4)/(plants×4)×100; 0 = no clubroot; conditions: for Disease control value / Disease severity: 60 days after settled planting
Description: A chemical solution for spraying at 50 ppm was prepared by diluting 9.4% w/w cyazofamid (Ranman [trade name] flowable, manufactured by Ishihara Sangyo Kaisha Ltd.) with water.
A spore suspension of Plasmodiophora brassicae (fungus density: 1×10^5 fungi/g dry soil) was inoculated into a sterilization soil adjusted to pH of 6.2 with Sandoseto and after introducing the resulting test soil into a 1/5000 a pot, a cabbage (variety: Okina) seedling grown in a cell seedling tray (128 cells/seedling box) was settled-planted by establishing five plantings for each test section having a size of 0.02 m^2 per one plant. Just after the settled planting, 3 days, 7 days, 10 days and 14 days after the settled planting, the chemical solution for spraying prepared in (1) was applied by soil drench at a ratio of 250 ml/plant. Sixty days after the settled planting, the number of each index of clubroot adhesion to the root was investigated. For comparison, the same test was carried out on a control section where a soil drench treatment with the chemical solution for spraying was not applied.
The test was carried out by the same method as in Example 1(2) except that in place of the soil drench treatment with the chemical solution for spraying, 30 kg/10 a of 0.3% flusulfamide (dust formulation of Nebijin [trade name], manufactured by Mitsui Chemicals Agro, Inc.) was applied to the test soil just before settled planting and incorporated into the soil by means of a small mixer (interfusion depth: 15 cm).
In Example 1 and Comparative Example 1, the adhesion of clubroot was investigated by pulling out the root of cabbage. The adhesion of clubroot was investigated by calculating the disease severity using the following formula. In addition, the weight of cabbage in the aerial part was measured. Furthermore, the test result was shown by the average value of five plantings.
(§1) Disease severity={Σ(number of each index of diseased plants×disease index)/(number of plants surveyed×4)}×100
(§2) Disease control value={1−(treatment disease severity/control disease severity)}×100
(§3) 0: No adhesion of clubroot, 1: clubroot adhesion to lateral root, 2: clubroot adhesion to the entire lateral root or clubroot adhesion to a part of tap root, 3: adhesion of large clubroot to tap root, and 4: clubroot adhesion to the entire tap root.

Plasmodiophora brassicae [2] = test: Cabbage clubroot control test, farm field (Example 2 / Comparative Example 2); parameters: key to Disease control value: control value = {1 − (treated severity/control severity)}×100; key to Disease severity: severity = Σ(plants×index 0–4)/(plants surveyed×4)×100; conditions: for Disease control value / Disease severity: 77 days after settled planting
Text: as §1, §2, §3
A spore suspension of Plasmodiophora brassicae was sprayed on the entire farm field by using a watering pot to have a fungus density of 1×10^4 fungi/g dry soil. In this farm field, a cabbage (variety: Okina) seedling grown in a cell seedling tray (128 cells/seedling box) was settled-planted by establishing two plantings for each test section containing ten plants (interplant distance: 30 cm, interrow space: 30 cm, planting in two rows). Just after the settled planting, 4 days, 7 days and 11 days after settled planting, the chemical solution for spraying prepared by the same method as in Example 1(1) was drenched into the soil in a ratio of 250 ml/plant. Seventy-seven days after the settled planting, the number of each index of clubroot adhesion to the root was investigated. For comparison, the same test was carried out on a control section where a soil drench treatment with the chemical solution for spraying was not applied.
The test was carried out by the same method as in Example 2 except that in place of the soil drench treatment with the chemical solution for spraying, a chemical solution for spraying prepared by the same method as in Example 1(1) was sprayed on a cabbage (variety: Okina) seedling grown in a cell seedling tray (128 cells/seedling box) at a concentration of 2 liters/cell seedling tray by using a watering pot and these seedlings were settled-planted.
The disease severity and disease control value of Example 2 and Comparative Example 2 were determined by the same methods as in Example 1 and Comparative Example 1. In addition, the weight of cabbage in the aerial part was measured. Furthermore, the test result was shown by the average value of two plantings.

Plasmodiophora brassicae [3] = test: Cabbage clubroot control test, pot test, cyazofamid vs chlorothalonil (Example 3 / Comparative Example 3); parameters: key to Disease control value: control value = (1 − treated/control severity) × 100; key to Disease severity: severity = Σ(plants × index 0-4)/(plants × 4) × 100; conditions: for Disease control value / Disease severity: 57 days after settled planting
Text: as §1, §2, §3
A spore suspension of Plasmodiophora brassicae (fungus density: 1×10^5 fungi/g dry soil) was inoculated into a sterilization soil adjusted to pH of 6.0 with Sandoseto and after introducing the resulting test soil into a 1/5000 a pot, a cabbage (variety: Okina) seedling grown in a cell seedling tray (128 cells/seedling box) was settled-planted by establishing five plantings for each test section having a size of 0.02 m^2 for one plant. Immediately, 4 days, 7 days and 14 days after settled planting, the chemical solution for spraying prepared by the same method as in Example 1(1) was drenched into the soil in a ratio of 250 ml/plant. Fifty-seven days after the settled planting, the number of each index of clubroot adhesion to the root was investigated. For comparison, the same test was carried out on a control section where a soil drench treatment with the chemical solution for spraying was not applied.
A chemical solution for spraying in a concentration of 800 ppm was prepared by diluting 40% chlorothalonil (Daconil 1000 [trade name], manufactured by SDS K.K.) with water.
The test was carried out by the same procedure as in Example 3 except that the chemical solution (cyazofamid) for spraying was replaced by the chemical solution (chlorothalonil) for spraying prepared in Comparative Example 3(1).
The disease severity and disease control value of Example 3 and Comparative Example 3 were determined by the same methods as in Example 1 and Comparative Example 1. In addition, the weight of cabbage in the aerial part was measured. Furthermore, the test result was shown by the average value of five plantings.

[4] = 50 ppm soil drench 250 ml/plant 3 days after settled planting
[5] = 50 ppm soil drench 250 ml/plant 7 days after settled planting
[6] = 50 ppm soil drench 250 ml/plant 10 days after settled planting
[7] = 50 ppm soil drench 250 ml/plant 14 days after settled planting
[8] = 50 ppm soil drench 250 ml/plant just after settled planting
[9] = 50 ppm soil drench 250 ml/plant 4 days after settled planting
[10] = 50 ppm soil drench 250 ml/plant 11 days after settled planting
[11] = 50 ppm solution sprayed on seedlings in cell tray, 2 liters/cell seedling tray, just before settled planting

## Cc1ccc(-c2c(Cl)nc(C#N)n2S(=O)(=O)N(C)C)cc1 [cyazofamid, 4-chloro-2-cyano-1-dimethylsulfamoyl-5-(4-methylphenyl)imidazole]
Plasmodiophora brassicae [1]; [4]
  Weight in the aerial part: 156 g
  Disease control value: 75
  Disease severity: 20
Plasmodiophora brassicae [1]; [5]
  Weight in the aerial part: 168 g
  Disease control value: 69
  Disease severity: 25
Plasmodiophora brassicae [1]; [6]
  Weight in the aerial part: 164 g
  Disease control value: 50
  Disease severity: 40
Plasmodiophora brassicae [1]; [7]
  Weight in the aerial part: 163 g
  Disease control value: 31
  Disease severity: 55
Plasmodiophora brassicae [1]; [8]
  Weight in the aerial part: 164 g
  Disease control value: 81
  Disease severity: 15
Plasmodiophora brassicae [2]; [9]
  Weight in the aerial part: 666 g
  Disease control value: 87
  Disease severity: 7
Plasmodiophora brassicae [2]; [5]
  Weight in the aerial part: 579 g
  Disease control value: 30
  Disease severity: 38
Plasmodiophora brassicae [2]; [10]
  Weight in the aerial part: 563 g
  Disease control value: 11
  Disease severity: 48
Plasmodiophora brassicae [2]; [8]
  Weight in the aerial part: 713 g
  Disease control value: 44
  Disease severity: 30
Plasmodiophora brassicae [2]; [11]
  Weight in the aerial part: 745 g
  Disease control value: 44
  Disease severity: 30
Plasmodiophora brassicae [3]; [9]
  Weight in the aerial part: 109 g
  Disease control value: 81
  Disease severity: 15
Plasmodiophora brassicae [3]; [5]
  Weight in the aerial part: 109 g
  Disease control value: 88
  Disease severity: 10
Plasmodiophora brassicae [3]; [7]
  Weight in the aerial part: 91 g
  Disease control value: 0
  Disease severity: 80
Plasmodiophora brassicae [3]; [8]
  Weight in the aerial part: 104 g
  Disease control value: 100
  Disease severity: 0
Plasmodiophora brassicae [3]; 50 ppm soil drench, treatment within 7 days after settled planting
  Control effect: a control effect which was sufficient for practical use was obtained

Source: patent US20130296393A1, “METHOD FOR CONTROLLING CLUBROOT” (ISHIHARA SANGYO KAISHA, LTD., priority 2011, published 2013)
